Results taken from patent EP0585371B1, “AROMATIC OLIGOMERIC COMPOUNDS USEFUL AS MIMICS OF BIOACTIVE MACROMOLECULES” (RHONE-POULENC RORER INTERNATIONAL (HOLDINGS) INC., priority 1991, dated 1992).

Legend:
[1] = tested on: normal pooled plasma; assay: Anticoagulation activity, Activated Partial Thromboplastin Time (APTT) test; conditions: concentration required to double clotting time
Method in brief: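 Normal pooled plasma was mixed with compound in 50 mM Tris-HCl, pH 7.5, and held at 37 °C for 2.5 min. Actin-activated cephaloplastin was added for 5 min, then 35 mM CaCl, and clotting time was read photometrically. Over about .025–1 mg/ml, the concentration doubling clotting time was found by linear interpolation.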

[2] = tested on: human fixed thrombin activated platelets; assay: Platelet aggregation inhibition (fibrinogen-induced); type: cell-based; conditions: human fibrinogen added
Method: The method for measuring platelet aggregation inhibition is essentially that of Ruggeri, et al., Proc. Natl. Acad. Sci. USA, 83, 5708-5712 (1986), using formalin-fixed platelets as prepared by Plow, et al., Proc. Natl. Acad. Sci. USA, 79, 3711-3715 (1982). A given amount of the compound of the present invention or other compound to be tested (10 to 100 µl of a 1 mg/ml solution) is incubated at 37°C with 400 µl of human fixed thrombin activated platelets for 2 minutes. 12.5 µl of human fibrinogen solution is added and aggregation is monitored using a platelet aggregation profiler (Model PAP-4). Controls consist of fibrinogen added to incubated platelets and the resulting aggregation is considered as 100%. Percent inhibition in the presence of a given concentration of test compound versus concentration of the compound is plotted and the concentration required to give 50% inhibition (IC50) is determined.

- Platelet Aggregation IC50 [2]: >1000 µg/mL
SMILES: Cc1cc(O)c(Cc2cc(O)c(Cc3cc(O)c(Cc4cc(O)c(Cc5cc(O)c(Cc6cc(O)c(Cc7cc(O)c(Cc8cc(O)ccc8CCC(=O)O)cc7CCC(=O)O)cc6CCC(=O)O)cc5CCC(=O)O)cc4CCC(=O)O)cc3CCC(=O)O)cc2CCC(=O)O)cc1CCC(=O)O [Ex 4, 5-[4-[4-[4-[4-[4-[4-[[2-(2-carboxyethyl)-5-hydroxy]benzyl]-[2-(2-carboxyethyl)-5-hydroxy]benzyl]-[2-(2-carboxyethyl)-5-hydroxy]benzyl]-[2-(2-carboxyethyl)-5-hydroxy]benzyl]-[2-(2-carboxyethyl)-5-hydroxy]benzyl]-[2-(2-carboxyethyl)-5-hydroxy]benzyl]-[2-(2-carboxyethyl)-5-hydroxy]benzyl]-4-hydroxy-2-methylhydrocinnamic acid]
- APTT ICDCT [1]: 430 µg/mL
